Measurements as given in patent US10925915B2, “Use of a Copaifera extract to combat alopecia and seborrhea” (PIERRE FABRE DERMO-COSMETIQUE, priority 2017, dated 2021).

Test system: 5α-reductase
Test: 5α-reductase activity of fibroblasts derived from human follicle dermal papillae ([C14]-testosterone metabolism to dihydrotestosterone)
Type: cell-based
Description: The study is performed on human cells derived from donor follicle dermal papillae. This model is attractive since dermal papillae have the 5α2 isoform as in prostate tissue. The cells are seeded in 24-well plates and cultured for 24 hours in DMEM culture medium supplemented with L-glutamine (2 mM), penicillin (50 U/ml), streptomycin (50 μg/ml) and fatal calf serum (10%) under standard culture conditions (37° C. and 5% CO2). The culture medium is then replaced by a DMEM analytical medium supplemented with L-glutamine (2 mM), penicillin (50 U/ml), streptomycin (50 μg/ml) and fatal calf serum (1%). This analytical medium may contain or may not contain (control conditions) the products to be tested and a compound used as reference, finasteride (10 μM), for 24 h of pre-incubation. The cells were then treated with an analytical medium containing [C^14]-testosterone and containing or not containing (control conditions) the test or reference products, and the cells were incubated for 24 h under these conditions. After incubation, supernatants were collected for testosterone metabolism analysis. All experiments were carried out three times. The steroid molecules were extracted from the supernatants with a chloroform/methanol mixture. The organic phase was collected and the different molecular species (testosterone metabolites) were separated by thin-layer chromatography using a solvent system containing dichloromethane, ethylacetate and methanol. An autoradiography was performed on the chromatography and the transformed testosterone was estimated by densitometric analysis.
Thus, the metabolism of testosterone to dihydrotestosterone reflects the 5α-reductase activity and is evaluated by the dihydrotestosterone/testosterone ratio.

| SMILES | 5α-reductase inhibition, result in words | testosterone metabolism/dihydrotestosterone production (5α-reductase activity), change versus control = 100 (10 μM, n = 3) | inhibition of 5α-reductase (40 μg/ml) |
| --- | --- | --- | --- |
| CC(C)(C)NC(=O)[C@H]1CC[C@H]2[C@@H]3CC[C@H]4NC(=O)C=C[C@]4(C)[C@H]3CC[C@]12C [Finasteride, finasteride] | strong inhibition | −77% | – |
| CCCCCCCCCCCC(=O)OCC(O)CO (stereo not drawn) [glyceryl laurate] | – | – | 19% |
